A word on the IC50: it is the concentration that inhibits the measured activity by half. A higher IC50 goes with lower potency.

These results are taken from patent US10221190B2, “Biguanide compounds and use thereof” (IMMUNOMET THERAPEUTICS INC., priority 2013, dated 2019).

Assay [1] has as its system HCT116 cell. As to the kind of experiment: Inhibitory activity against cancer cells (MTT cell viability), HCT116. It is filed as cell-based, human. Particulars: Homo sapiens, HCT 116, 48 hr incubation. The protocol:
(§1) The inhibitory activities of biguanide derivatives against cancer cells were evaluated in the cell line SK-MEL-28 derived from human Melanoma cell, Miapaka-2 cell line derived from human pancreatic cancer cell and HCT116 cell line derived from human colorectal cancer cell by measuring the concentration that inhibits 50% of the growth of the cell lines (the half maximal inhibitory concentration, IC50).
(§2) Firstly, SK-MEL-28 cells were grown to be density of 5,000 cells/well in RPMI-1640 media supplemented with 10% (v/v) bovine calf serum, on 96-well plates for 16 hr. To measure the IC50 of each compound, the cells were incubated for 48 hr with the 100 mM PBS stock compounds at an amount of 10 mM, 1 mM, 200 uM, 40 uM, 8 uM, 1.6 uM, 0.32 uM or 0.064 uM; 50 mM PBS and EtOH stock compounds at an amount of 1 mM, 200 uM, 40 uM, 8 uM, 1.6 uM, 0.32 uM and 0.064 uM; and 50 mM DMSO stock compounds at an amount of 100 uM, 25 uM, 6.25 uM, 1.56 uM, 0.39 uM, 0.10 uM and 0.02 uM, respectively. To test the viable cells after incubation with each compound, the cell cultures were incubated additionally for 2 hr in the presence of MTT. The produced formazan crystals were dissolved with dimethyl sulfoxide and then measured by detecting the absorbance at 560 nm.
(§3) After the 48 hr incubation, the viable cells were counted on the well plates treated with the compounds of the Examples relative to the count of the viable cells on the non-treated plates, and then was represented as the cell viability (%). By using the cell viability (%) result, the cell viability curve was plotted, and IC50 was calculated from the curve to evaluate the inhibitory activity against cancer cells.
(§4) The inhibitory activities of biguanide derivatives against cancer cells of Miapaca-2 cell and HCT116 cell were evaluated according to the substantially same method as described in SK-MEL-28 cell, except that DMEM media supplemented with 10% (v/v) bovine calf serum was used instead of RPMI-1640 media supplemented with 10% (v/v) bovine calf serum for SK-MEL-28 cell.

For assay [2], the system named is lung cancer cell line A549. The assay can be described thus: Inhibitory activity on Oxygen Consumption Rate (OCR). The format is cell-based. Particulars: A549, 3 hrs, 10 uM compound; phenformin set to 100%, untreated control set to 0%. The method, then:
The cellular metabolic activity of the compounds on Oxygen Consumption Rate (OCR) was evaluated, because the biguanide drugs have anticancer activity by inhibiting the oxidative phosphorylation of cancer cell.
A549 cells were inoculated at 5×10^3 cells in RPMI1640 media on XF96 cell culture plate and cultured for 24 h (temp; 37° C., 5% CO2) to make the cell adhere to the plate.
After 24 hr, A549 cells were treated by 10 μM of the compounds or phenformin, and were washed with XF analysis media using Prep station to remove the original media. A549 cells were retreated by compounds or phenformin and incubated for 1 hr (temp; 37° C., Non-CO2) in Prep station. While incubation in Prep station, sensor cartridge was calibrated for 1 hr. Then, the calibrated sensor cartridge was inserted to the cell plate to analyze OCR.
When OCR of phenformin as a reference drug was set to 100% and OCR of untreated control was set to 0%, the OCR of tested compounds was calculated by converting the measured OCR to be the relative percentage value (%).

Assay [3] has as its system SK-MEL-28 cells. As to the kind of experiment: Inhibitory activity against cancer cells (MTT cell viability), SK-MEL-28. Particulars: Homo sapiens, SK-MEL-28, 48 hr incubation. It is filed as cell-based. The method, then:
as §1, §2, §3

Assay [4] concerns Miapaca-2 cell. The assay can be described thus: Inhibitory activity against cancer cells (MTT cell viability), Miapaca-2. It is filed as cell-based. Particulars: Homo sapiens, MIA PaCa-2, Miapaca-2, 48 hr incubation. The protocol: as §1, §2, §3, §4

Take `C[C@H]1CCCN1C(=N)NC(=N)Nc1ccc(OC(F)(F)F)cc1.Cl` [Example 16]: in assay [1], half-maximal inhibition (IC50) was put at 39.8 µM. Further, in assay [2], the “OCR inhibition relative to phenformin (%)” value turned out to be 13%.

Compound `CC(C)c1ccc(NC(=N)NC(=N)N2CCCC2)cc1.Cl` [Example 6, N1-pyrrolidine-N5-(4-isopropyl)phenyl biguanide] displayed an IC50 in assay [1] of 28.6 µM. The “OCR inhibition relative to phenformin (%)” value in assay [2] stood at 44%.

Regarding `Cl.N=C(NC(=N)N1CCC(CO)C1)Nc1ccc(OC(F)(F)F)cc1` (stereo not drawn) [Example 20, N1-3-hydroxy methyl pyrrolidine-N5-(4-trifluoromethoxy)phenyl biguanide], the IC50 was above 100 µM in assay [1], 134 µM in assay [3] and 58.6 µM in assay [4]. For the same compound, in assay [2], the “OCR inhibition relative to phenformin (%)” value came to 15%.

Take `N=C(NC(=N)N1CCCC1)Nc1ccc2c(c1)CCCC2` [Example 14, N1-pyrrolidine-N5-(5,6,7,8-tetrahydronaphthalene-2-yl) biguanide]: the IC50 in assay [1] is above 100 µM; in assay [3], 29.5 µM; in assay [4] it was 26.6 µM.

As for `Cl.N=C(NC(=N)N1CCC(O)CC1)Nc1ccc(OC(F)(F)F)cc1` [Example 18, N1-4-hydroxy piperidine-N5-(4-trifluoromethoxy)phenyl biguanide], the results for the IC50 in assay [1], in assay [3] and in assay [4] were above 100 µM, 182 µM and 47.9 µM, respectively. For the same compound, the “OCR inhibition relative to phenformin (%)” value in assay [2] came out at 57%.

Turning to `N=C(NC(=N)N1CCCC1)Nc1ccc(SCC(=O)N2CCCCC2)cc1` [Example 28, N—(N-(4-(2-oxo-2-(piperidin-1-yl)ethylthio)phenyl)carbamimidoyl)pyrrolidine-1-carboximidamide], the IC50 in assay [1] was above 100 µM; in assay [3], 176 µM; in assay [4], 209 µM.

`Cl.N=C(NC(=N)N1CCC(O)CC1)Nc1cccc(Oc2ccccc2)c1` [Example 22, N1-4-hydroxy piperidine-N5-(3-phenoxy)phenyl biguanide] returned an IC50 in assay [4] of 106 µM. In addition, in assay [2], the “OCR inhibition relative to phenformin (%)” value worked out at 74%.

The compound `Cl.N=C(NC(=N)N1CCc2ccccc2C1)N1CCCC1` [Example 89, N-(imino(pyrrolidin-1-yl)methyl)-3,4-dihydroisoquinoline-2(1H)-carboximidamide] had an IC50 in assay [1] of 59.5 µM. Further, the “OCR inhibition relative to phenformin (%)” value in assay [2] amounted to 44%.

With `CS(=O)(=O)C1CCN(C(=N)NC(=N)Nc2ccc(OC(F)(F)F)cc2)CC1` [Example 53, N1-4-(methylsulfonyl)piperidine-N5-(4-trifluoromethoxy)phenyl biguanide], the figures for the IC50 in assay [1], in assay [3] and in assay [4] were 182 µM, above 100 µM and above 100 µM, respectively.

As for `N=C(NC(=N)N1CCCC1)Nc1ccc(/C=C/C(=O)N2CCCCC2)cc1` [Example 24, (E)-N—(N-(4-(3-oxo-3-(piperidin-1-yl)prop-1-enyl)phenyl)carbamimidoyl)pyrrolidine-1-carboximidamide], the IC50 in assay [1], in assay [3] and in assay [4] was above 100 µM throughout.

In the case of `N=C(NC(=N)N1CC[C@H](O)C1)Nc1ccc(OC(F)(F)F)cc1` [Example 17, N1-(S)-3-hydroxy pyrrolidine-N5-(4-trifluoromethoxy)phenyl biguanide], the IC50 in assay [1] is above 100 µM; in assay [3] it was 184 µM; in assay [4], 113 µM.

Compound `CN1CCN(C(=N)NC(=N)Nc2ccc(F)c(OC(F)(F)F)c2)CC1.Cl` [Example 40, N1-4-methyl piperazine-N5-(4-fluoro-3-trifluoromethoxy)phenyl biguanide] yielded an IC50 in assay [1] of 35.2 µM. In assay [2], the “OCR inhibition relative to phenformin (%)” value is reported as 42.9%.

With `N=C(NCc1ccc2c(c1)OCO2)NC(=N)N1CCCC1` [Example 1, N1-pyrrolidine-N5-(benzo[1,3]dioxol-5-ylmethyl) biguanide], the IC50 is above 100 µM in assay [1], 107 µM in assay [3] and 36.2 µM in assay [4].
